Patent US20240156090A1, “SUSPENSION CONCENTRATE ACYLHYDRAZONE APYRASE INHIBITOR FORMULATION” (Texas Crop Science, priority 2022, published 2024)

Experiments:
Format in all cases: physicochemical
[1] = Solubility of Compound 1 in water
[2] = Long term chemical stability of aqueous suspension concentrate as a function of pH, HPLC (Example 7); settings: 30 wt % suspension concentrate
Experimental: Method: An aqueous suspension concentrate was prepared with the following composition: 30 wt % Compound 1, 2.5 wt % tristyrylphenol ethoxylate surfactant, 2.0 wt % ethyleneoxide-propyleneoxide block co-polymeric dispersant, 5.0 wt % propylene glycol freeze protectant, 0.1 wt % silicone oil antifoam, 52.4% distilled water, and after 2 hours of milling were added 8.0 wt % viscosity modifier gel comprising 2.0% xanthan and 1.0% biocide in water. Aliquots of this suspension were taken and adjusted to pH 6, 7 and 8 with respectively 10 wt % sulfuric acid, pH10 borate buffer and 10 wt % sodium hydroxide. The three samples were sub-divided and stored at room temperature (RT, approximately 25° C.) and 38° C. Control samples were stored at 0° C. for reference. Aliquots were withdrawn periodically and diluted in acetonitrile for analysis by HPLC.

[3] = Chemical stability as a function of pH in PBS (Example 6); settings: for remaining amount of Compound 1: 5 μM
Experimental: A working solution of Compound 1 was prepared in dimethyl sulfoxide at a concentration of 500 μM. 2 μL of the working solution and 198 μL of PBS pH 4.5 or PBS pH 7.4 were added into glass vials to achieve a final concentration of 5 μM. The setup was performed in duplicate. Vials were incubated at 37° C. at 60 rpm in a water bath and taken at designated time points of 0, 2, 4, 6 and 24 hours. For each time point, the incubations were terminated with 1000 μL cold acetonitrile containing internal analytical reference standards. Samples were vortexed for 1 minute then centrifuged at RT at 2500 g for 10 minutes. Aliquots of 200 μL of the supernatant were used for LC-MS/MS analysis.

## C/C(=N\NC(=O)c1cccc(C)c1)c1ccc2ccccc2c1 [Compound 1, (E)-3-methyl-N′-(1-(naphthalen-2-yl)ethylidene)benzohydrazide]
[1]
  solubility: < 5 µM
[2]; pH 6 sample as printed in the last sentence of b183, 38° C., 1 month
  amount of Compound 1 remaining: 99%
[2]; pH 6 sample as printed in the last sentence of b183, 38° C., 9 months
  amount of Compound 1 remaining: 103%
[2]; pH 6 sample, 38° C., 1 month
  amount of Compound 1 remaining: 103%
[2]; pH 6 sample, 38° C., 9 months
  amount of Compound 1 remaining: 94%
[2]; pH 6 sample, RT, 1 month
  amount of Compound 1 remaining: 99%
[2]; pH 6 sample, RT, 9 months
  amount of Compound 1 remaining: 86%
[2]; pH 7 sample, 38° C., 1 month
  amount of Compound 1 remaining: 104%
[2]; pH 7 sample, 38° C., 9 months
  amount of Compound 1 remaining: 89%
[2]; pH 7 sample, RT, 1 month
  amount of Compound 1 remaining: 103%
[2]; pH 7 sample, RT, 9 months
  amount of Compound 1 remaining: 76%
[2]; pH 8 sample, RT, 1 month
  amount of Compound 1 remaining: 99%
[2]; pH 8 sample, RT, 9 months
  amount of Compound 1 remaining: 102%
[3]; PBS pH 4.5, 37° C., 0 hr
  remaining amount of Compound 1: 100%
[3]; PBS pH 4.5, 37° C., 2 hr
  remaining amount of Compound 1: 62.3%
[3]; PBS pH 4.5, 37° C., 4 hr
  remaining amount of Compound 1: 33.7%
[3]; PBS pH 4.5, 37° C., 6 hr
  remaining amount of Compound 1: 29.2%
[3]; PBS pH 4.5, 37° C., 24 hr
  remaining amount of Compound 1: 3.1%
[3]; PBS pH 7.4, 37° C., 0 hr
  remaining amount of Compound 1: 100%
[3]; PBS pH 7.4, 37° C., 2 hr
  remaining amount of Compound 1: 112.4%
[3]; PBS pH 7.4, 37° C., 4 hr
  remaining amount of Compound 1: 96.2%
[3]; PBS pH 7.4, 37° C., 6 hr
  remaining amount of Compound 1: 97.8%
[3]; PBS pH 7.4, 37° C., 24 hr
  remaining amount of Compound 1: 91.1%
[3]; mildly acidic conditions (PBS pH 4.5), 37° C., read-out: apparent half-life
  half-life at 5 μM: > 2 h
[3]; mildly acidic conditions, corrected for solubility below 5 μM
  estimated half-life of actual degradation in solution: below one
